ChEMBL document CHEMBL5120927, “LEGO-Lipophosphonoxins: A Novel Approach in Designing Membrane Targeting Antimicrobials” (J Med Chem, 2022)

Columns and labels:
Escherichia coli [1] = assay: Antibacterial activity against Escherichia coli ATCC 25922 = CCM 3954 assessed as inhibition of bacterial growth incubated for 24 hrs in presence of BSA by microdilution assay; type: functional
Enterococcus faecalis = assay: Antibacterial activity against Enterococcus faecalis ATCC 29212 = CCM 4224 assessed as inhibition of bacterial growth incubated for 24 hrs by microdilution assay; type: functional
Escherichia coli [2] = assay: Antibacterial activity against multidrug-resistant Escherichia coli CE5556 expressing CTX-M-15 assessed as reduction in microbial growth incubated for 24 hrs by microdilution assay; type: functional
[3] = Gradient chromatographic hydrophobicity index of the compound at pH 3.7 by HPLC analysis; type: ADME
[4] = tested on: Staphylococcus epidermidis; assay: Antibacterial activity against Staphylococcus epidermidis CCM 7221 assessed as inhibition of bacterial growth incubated for 24 hrs by microdilution assay; type: functional
Staphylococcus aureus [5] = assay: Antibacterial activity against Staphylococcus aureus ATCC 29213 = CCM 4223 assessed as inhibition of bacterial growth incubated for 24 hrs by microdilution assay; type: functional
Pseudomonas aeruginosa [6] = assay: Antibacterial activity against multidrug-resistant Pseudomonas aeruginosa assessed as reduction in microbial growth incubated for 24 hrs by microdilution assay; type: functional
[7] = Hemolytic activity in human RBC assessed as haemoglobin release measured after 3 hr; type: toxicity, cell-based, Erythrocyte; details: red blood cells (erythrocytes)
Enterococcus faecium = assay: Antibacterial activity against vancomycin resistant Enterococcus faecium 419/ANA assessed as reduction in microbial growth incubated for 24 hrs by microdilution assay; type: functional
Escherichia coli [8] = assay: Antibacterial activity against Escherichia coli ATCC 25922 = CCM 3954 assessed as inhibition of bacterial growth incubated for 24 hrs by microdilution assay; type: functional
Staphylococcus aureus [9] = assay: Antibacterial activity against Staphylococcus aureus ATCC 29213 = CCM 4223 assessed as inhibition of bacterial growth incubated for 24 hrs in presence of BSA by microdilution assay; type: functional
Pseudomonas aeruginosa [10] = assay: Antibacterial activity against Pseudomonas aeruginosa ATCC 27853 = CCM 3955 assessed as inhibition of bacterial growth incubated for 24 hrs by microdilution assay; type: functional
Staphylococcus aureus [11] = assay: Antibacterial activity against methicillin resistant Staphylococcus aureus 4591/A assessed as reduction in microbial growth incubated for 24 hrs by microdilution assay; type: functional

SMILES	MIC (Escherichia coli [1])	MIC (Enterococcus faecalis)	MIC (Escherichia coli [2])	CHI [3]	MIC [4]	MIC (Staphylococcus aureus [5])	MIC (Pseudomonas aeruginosa [6])	HC50 at 3 h [7]	MIC (Enterococcus faecium)	MIC (Escherichia coli [8])	MIC (Staphylococcus aureus [9])	MIC (Pseudomonas aeruginosa [10])	MIC (Staphylococcus aureus [11])
CCC/C=C\CCOP(=O)(CCN(CCCN)CCCN)OCCCCCOP(=O)(CCN(CCCN)CCCN)OCC/C=C\CCC.Cl.Cl.Cl.Cl.Cl.Cl (centres undefined)	128 µg/mL	> 128 µg/mL	> 128 µg/mL	28.2	128 µg/mL	32 µg/mL	> 128 µg/mL	> 250 µg/mL	> 128 µg/mL	128 µg/mL	64 µg/mL	> 128 µg/mL	32 µg/mL
Cl.Cl.Cl.Cl.Cl.Cl.NCCN(CCN)CCP(=O)(OCCCCCCOP(=O)(CCN(CCN)CCN)OCCc1ccccc1)OCCc1ccccc1 (centres undefined)	> 128 µg/mL	> 128 µg/mL	> 128 µg/mL	30.9	16 µg/mL	32 µg/mL	> 128 µg/mL	> 200 µg/mL	> 128 µg/mL	> 128 µg/mL	128 µg/mL	> 128 µg/mL	64 µg/mL
CCCCCCCCCCOP(=O)(CCN(CCCN)CCCN)OCCCCCCCCCCOP(=O)(CCN(CCCN)CCCN)OCCCCCCCCCC.Cl.Cl.Cl.Cl.Cl.Cl (centres undefined)	16 µg/mL	2 µg/mL	2 µg/mL	46.9	1 µg/mL	2 µg/mL	4 µg/mL	5.2 µg/mL	2 µg/mL	> 2 µg/mL	1 µg/mL	4 µg/mL	1 µg/mL
Cl.Cl.Cl.Cl.Cl.Cl.N=C(N)NCCCN(CCCNC(=N)N)CCP(=O)(OCCCCCCCOP(=O)(CCN(CCCNC(=N)N)CCCNC(=N)N)OCCCC(F)(F)F)OCCCC(F)(F)F (centres undefined)	128 µg/mL	> 128 µg/mL	128 µg/mL	25.2	8 µg/mL	8 µg/mL	> 128 µg/mL	> 200 µg/mL	> 128 µg/mL	1 µg/mL	16 µg/mL	> 128 µg/mL	8 µg/mL
CCC/C=C\CCOP(=O)(CCN(CCN)CCN)OCCCCCCCOP(=O)(CCN(CCN)CCN)OCC/C=C\CCC.Cl.Cl.Cl.Cl.Cl.Cl (centres undefined)	16 µg/mL	16 µg/mL	32 µg/mL	37.4	0.5 µg/mL	2 µg/mL	32 µg/mL	> 500 µg/mL	128 µg/mL	> 128 µg/mL	4 µg/mL	32 µg/mL	1 µg/mL
CCCCC/C=C\CCCOP(=O)(CCN(CCCN)CCCN)OCCCOP(=O)(CCN(CCCN)CCCN)OCCC/C=C\CCCCC.Cl.Cl.Cl.Cl.Cl.Cl (centres undefined)	2 µg/mL	2 µg/mL	1 µg/mL	39.8	1 µg/mL	1 µg/mL	2 µg/mL	271 µg/mL	8 µg/mL	1 µg/mL	2 µg/mL	2 µg/mL	1 µg/mL
Cl.Cl.Cl.Cl.Cl.Cl.NCCCN(CCCN)CCP(=O)(OCCCCCCCCCCOP(=O)(CCN(CCCN)CCCN)OCCc1ccccc1)OCCc1ccccc1 (centres undefined)	32 µg/mL	32 µg/mL	64 µg/mL	31.1	1 µg/mL	2 µg/mL	64 µg/mL	> 500 µg/mL	128 µg/mL	16 µg/mL	4 µg/mL	64 µg/mL	2 µg/mL
CCCCOP(=O)(CCN(CCCN)CCCN)OCCCCCCCCOP(=O)(CCN(CCCN)CCCN)OCCCC.Cl.Cl.Cl.Cl.Cl.Cl (centres undefined)	> 128 µg/mL	> 128 µg/mL	> 128 µg/mL	11	64 µg/mL	> 128 µg/mL	> 128 µg/mL	> 100 µg/mL	> 128 µg/mL	128 µg/mL	> 128 µg/mL	> 128 µg/mL	> 128 µg/mL
